The values below come from PubChem BioAssay AID743026 (Vanderbilt Specialized Chemistry Center, 2013).

A word on the IC50: it is the point on the concentration scale where inhibition reaches its midpoint.

Each structure is given as a SMILES string. Calls of active or inactive are those of the source.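 The calls were made as follows: active = IC50 under 10 µM against human M5, lowering the acetylcholine-driven calcium signal; inactive = the rest.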

Sequence of Muscarinic acetylcholine receptor M5 (Homo sapiens) (P08912 whole entry, looked up): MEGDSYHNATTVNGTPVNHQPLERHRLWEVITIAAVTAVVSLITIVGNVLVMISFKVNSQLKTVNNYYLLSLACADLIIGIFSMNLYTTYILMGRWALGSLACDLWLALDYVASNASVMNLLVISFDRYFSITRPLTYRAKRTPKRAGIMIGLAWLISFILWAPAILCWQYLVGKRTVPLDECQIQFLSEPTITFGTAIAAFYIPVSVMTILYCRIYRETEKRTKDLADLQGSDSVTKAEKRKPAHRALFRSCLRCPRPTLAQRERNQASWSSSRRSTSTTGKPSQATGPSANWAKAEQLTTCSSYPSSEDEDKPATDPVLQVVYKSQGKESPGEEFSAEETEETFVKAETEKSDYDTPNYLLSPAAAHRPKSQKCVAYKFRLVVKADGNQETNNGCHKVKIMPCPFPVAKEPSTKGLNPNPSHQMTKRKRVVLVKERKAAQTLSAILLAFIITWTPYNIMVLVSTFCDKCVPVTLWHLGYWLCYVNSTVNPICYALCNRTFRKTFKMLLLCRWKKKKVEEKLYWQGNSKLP

The first test has as its target Muscarinic acetylcholine receptor M5 (Homo sapiens) (UniProt P08912). In words: potency of M5 ACh response inhibition – cell-based, concentration-response curves, human M5, dose response (AID 743026). Conditions: CHO-K1 hM5, ACh EC80 calcium flux, Fluo-4.
As for `Cc1ccc(C23c4ccccc4C(=O)N2CCN3C(=O)c2ccc(SC(F)(F)F)cc2)cc1` (centres undefined), the IC50 was 4040 nM. Same read-out and setting: to `O=C(c1cccc(C(F)(F)F)c1)N1CCN2C(=O)c3ccccc3C12c1ccc(F)cc1` (centres undefined) belongs 2090 nM; to `O=C(c1cccc(C(F)(F)F)c1)N1CCN2C(=O)c3ccccc3C12c1ccc(Cl)cc1` (centres undefined), 4910 nM.

Take `O=C(c1ccc(OC(F)F)cc1)N1CCN2C(=O)c3ccccc3C12c1ccc(Cl)cc1` (centres undefined): the IC50 was 4900 nM.

As to `O=C(c1ccc(C(F)(F)F)cc1)N1CCN2C(=O)c3ccccc3C12c1ccc(Cl)cc1` (centres undefined), the IC50 is 2070 nM.

`COc1ccc(C23c4ccccc4C(=O)N2CCN3C(=O)c2ccc(F)c(F)c2)cc1` (centres undefined): the concentration for half-maximal inhibition (IC50) is 1260 nM. On the same count and under the same terms, to `O=C(c1ccc(OC(F)(F)F)cc1)N1CCN2C(=O)c3ccccc3C12c1ccc(Cl)cc1` (centres undefined) belongs 2360 nM; to `O=C(c1ccccc1)N1CCN2C(=O)c3ccccc3C12c1ccc(Cl)cc1` (centres undefined), 1630 nM. On the same count and under the same terms, to `O=C(c1cc(F)cc(F)c1)N1CCN2C(=O)c3ccccc3C12c1ccccc1` (centres undefined) belongs 3840 nM; to `Cc1ccc(C23c4ccccc4C(=O)N2CCN3C(=O)c2ccc(F)c(F)c2)cc1` (centres undefined), 2620 nM.

`O=C(c1ccc(SC(F)(F)F)cc1)N1CCN2C(=O)c3ccccc3C12c1ccccc1` (centres undefined): the 50% inhibitory concentration (IC50) is 1390 nM. As to `O=C(c1ccc(C(F)(F)F)cc1)N1CCN2C(=O)c3ccccc3C12c1ccccc1` (centres undefined), the IC50 is 1950 nM. Still for that read-out and setting: in the case of `O=C(c1ccc(F)cc1)N1CCN2C(=O)c3ccccc3C12c1ccccc1` (centres undefined) it was 3430 nM; in that of `O=C(c1ccc(SC(F)(F)F)cc1)N1CCN2C(=O)c3ccccc3C12c1ccc(Cl)cc1` (centres undefined), 3100 nM; in that of `O=C(c1ccc(F)c(F)c1)N1CCN2C(=O)c3ccccc3C12c1ccccc1` (centres undefined), 1020 nM. With `O=C(c1ccc2c(c1)OCO2)N1CCN2C(=O)c3ccccc3C12c1ccc(Cl)cc1` (centres undefined), the IC50 was 2120 nM. The same measure, in the same setting: in the case of `O=C(c1ccc(SC(F)(F)F)cc1)N1CCN2C(=O)c3ccccc3C12c1ccc(F)cc1` (centres undefined) it was 1290 nM. In the case of `CC(C)Oc1ccc(C(=O)N2CCN3C(=O)c4ccccc4C23c2ccc(Cl)cc2)cc1` (centres undefined), the IC50 is 790 nM. With `COc1ccc(C23c4ccccc4C(=O)N2CCN3C(=O)c2ccc(SC(F)(F)F)cc2)cc1` (centres undefined), the IC50 is 8060 nM.

Consider `O=C(c1cc(F)cc(F)c1)N1CCN2C(=O)c3ccccc3C12c1ccc(Cl)cc1` (centres undefined), for which the IC50 was 1070 nM.

In the case of `O=C(c1cccc(C(F)(F)F)c1)N1CCN2C(=O)c3ccccc3C12c1ccccc1` (centres undefined), the IC50 is 3000 nM.

Regarding `Cc1ccc(C(=O)N2CCN3C(=O)c4ccccc4C23c2ccc(Cl)cc2)cc1` (centres undefined), the half-inhibitory concentration (IC50) is 4160 nM.

Take `CSc1ccc(C23c4ccccc4C(=O)N2CCN3C(=O)c2ccc(F)c(F)c2)cc1` (centres undefined): the IC50 is 1510 nM. Still for that read-out and setting: to `C=CCOc1ccc(C23c4ccccc4C(=O)N2CCN3C(=O)c2ccc(F)c(F)c2)cc1` (centres undefined) belongs 8930 nM. As to `Cc1ccc(C23c4ccccc4C(=O)N2CCN3C(=O)c2ccc(OC(F)(F)F)cc2)cc1` (centres undefined), the half-maximal inhibitory concentration (IC50) was 3470 nM. The same measure, in the same setting: to `O=C(c1ccc(OC(F)(F)F)cc1)N1CCN2C(=O)c3ccccc3C12c1ccccc1` (centres undefined) belongs 4510 nM; to `COc1cccc(C(=O)N2CCN3C(=O)c4ccccc4C23c2ccc(Cl)cc2)c1` (centres undefined), 6580 nM. Consider `Cc1ccc(C23c4ccccc4C(=O)N2CCN3C(=O)c2cc(F)cc(F)c2)cc1` (centres undefined), for which the half-inhibitory concentration (IC50) is 2340 nM.

As to `O=C(c1cc(Cl)cc(Cl)c1)N1CCN2C(=O)c3ccccc3C12c1ccccc1` (centres undefined), the half-inhibitory concentration (IC50) is 5810 nM.

With `COc1ccc(C23c4ccccc4C(=O)N2CCN3C(=O)c2ccc(OC(F)(F)F)cc2)cc1` (centres undefined), the IC50 was 6740 nM.

Staying with this test, now noted: CHO-K1 hM5, ACh EC80 calcium flux, Fluo-4; at 30 µM (top of the series).
Regarding `O=C1c2ccccc2C2(c3ccccc3)NCCN12` (centres undefined), the “% of max ACh response” value is “inactive”. Same read-out and setting: to `C[C@H]1CN(C(=O)c2ccc(F)c(F)c2)[C@]2(c3ccc(Cl)cc3)c3ccccc3C(=O)N12` belongs “inactive”. On the same count and under the same terms, to `O=C1CCC2(c3ccccc3)N1CCN2C(=O)c1ccc(F)cc1` (centres undefined) belongs “inactive”. `O=C(c1ccc(F)c(F)c1)N1CCCC1(c1ccccc1)c1ccc(Cl)cc1` (centres undefined): the “% of max ACh response” value is “inactive”. On the same count and under the same terms, in the case of `O=C(c1ccc(F)cc1)N1CCN2C(=O)c3ncccc3C12c1ccccc1` (centres undefined) it was “inactive”; in that of `O=C(c1ccc(F)c(F)c1)N1CCN2C(=O)c3ncccc3C12c1ccccc1` (centres undefined), “inactive”.

On to `O=C(c1ccc(F)cc1)N1CCN2C(=O)c3ccccc3C12c1ccc(Cl)cc1` (centres undefined), for which the “% of max ACh response” value is “inactive”. Still for that read-out and setting: to `O=C1c2ncccc2C2(c3ccccc3)NCCN12` (centres undefined) belongs “inactive”. In the case of `C[C@H]1CN[C@]2(c3ccc(Cl)cc3)c3ccccc3C(=O)N12`, the “% of max ACh response” value was “inactive”.
